Test [1] concerns BFU-E cells. Nature of the test: Serum free erythroid liquid expansion (SFELE) progenitor growth assay of sorted BFU-E cells. The class given is cell-based, mouse. The method, then: (§1) FIGS. 1A-1F. […] Error bars show one standard deviation. […] Error bars show one standard deviation. […] Shown is the fraction of c-kit+ cells after 72 hours. […] Cell numbers in each clone were estimated under the microscope on Day 8.
(§2) FIGS. 3A-3B. […] The experimental protocol was similar to that used in FIGS. 1A and B except that the CFU-E and BFU-E cells were purer (CD71 and CD24a^20% high and CD71 and CD24a^10% low, respectively). […] (A) Proliferation of sorted CFU-E cells. […] Error bars show one standard deviation. (B) Proliferation of sorted BFU-E cells. […] Error bars show one standard deviation.
FIG. 4. […] Cells were counted from day 4 until the day cell counts dropped.
(A) The total number of cells formed from 1000 BFU-E cells at different time points. […] Standard deviation between four separate biological experiments is shown in parenthesis (n/d=not determined).
(§3) We developed a modified version of the serum free erythroid liquid expansion culture (SFELE) medium described by Dolzning et al. (Dolznig et al., 2006).

In test [2] the test system is Lin-Sca-1-c-kit+ bone marrow progenitor population. Nature of the test: SFELE culture of Lin neg, c-kit pos, Sca-1 neg bone marrow cells. In kind it is cell-based, mouse. The note with it: for Enhancement of proliferation by DMOG above the effect of Dex: bone marrow cells, 333 μM DMOG. The text has this:
FIGS. 5A-5C. […] Total cell number was counted daily and normalized to the number of cells added to the culture. (n=4). Error bars show one standard deviation.
In the bone marrow BFU-E cells are found in the Lin^neg, c-kit^pos, Sca-1^neg fraction; this cell population contains mostly a mix of lineage restricted progenitor cells of which a minority are BFU-Es (Pronk et al., 2007).

Test [3] relates to CFU-E cells. Nature of the test: SFELE progenitor growth assay of sorted CFU-E cells. In kind it is cell-based, mouse. The note with it: CD71 and CD24a 20% high cells, 100 nM Dex and/or 333 μM DMOG. The method, then: as §1, §2, §3
The test system of test [4] is BFU-E cells. In words: CFU-E and BFU-E colony forming assays of BFU-E cells cultured in SFELE medium. In kind it is cell-based, mouse. The note with it: for Total colony numbers from 1,000 "BFU-E" cells: CFU-E 1 cluster / Total colony numbers from 1,000 "BFU-E" cells: large BFU-E >20 clusters / Total colony numbers from 1,000 "BFU-E" cells: small BFU-E 5-20 clusters: CD24 and CD71 10% low BFU-E cells, SFELE, 100 nM Dex and/or 333 μM DMOG. The method, then:
Dexamethasone prevents BFU-E cell exhaustion, which allows more CFU-E cells to be formed. […] (A) The total number of cells formed from 1000 BFU-E cells at different time points. […] Standard deviation between four separate biological experiments is shown in parenthesis (n/d=not determined).
At daily intervals colony assays were performed (Table 2). As in the experiment in FIG. 3, for the first three days the total number of cells increased at the same rate in all cultures.
(§4) Colonies were scored after 3 days. […] The number of hemoglobinized early BFU-E and late BFU-E colonies was determined after 8-9 days following staining with 2,7-Diaminofluorene (Sigma Chemical, St. Louis, Mo.).

In test [5] the test system is BFU-E cells. Nature of the test: Colony forming assays of sorted BFU-E fractions (Table S2). The note with it: CD71/CD24a 10% low cells, 100 nM Dex and/or 333 μM DMOG. The class given is cell-based, mouse.
Text: Separation of BFU-E and CFU-E cells by expression of CD71, CD24a or both CD71 and CD24a. C-kit positive BFU-E and CFU-E cells were sorted from FLEP cells based on expression of CD71, CD24a or both CD71 and CD24a. In all experiments the BFU-E fraction was the subset of c-kit^positive FLEP cells with the 10% lowest expression of CD71 and/or CD24a, while the CFU-E fraction was the subset with 20% highest expression of CD71 and/or CD24a. Sorted BFU-E and CFU-E populations were subjected to colony forming assays under two different conditions. […] The number of CFU-E colonies (±standard deviation) is shown. The sorted “BFU-E” populations mostly formed small CFU-E clusters rather than single CFU-E colonies in these assays. These CFU-E clusters are formed by precursors to CFU-Es and were scored separately as multi-CFU-Es. The number of “multi-CFU-Es” is not shown since these cells likely represent the same cells as those forming small BFU-E colonies.
The potential of the sorted cells to form large BFU-E, small BFU-E, CFU-G/M/Mk, and CFU-GEMM colonies (±standard deviation) was determined by a second assay in methyl cellulose containing 10U Epo, 20 nM IL-3, 20 nM IL-6 and 50 nM SCF per mL, and was scored at day 8-9. […] To determine the effect of DMOG, colony assays of sorted BFU-E (CD71 and CD24a^10% low) cells were also performed in the presence of 333 μM DMOG. In agreement with the finding that DMOG enhances BFU-E self-renewal BFU-E colonies were larger with a more immature appearance in the presence of DMOG and Dex. Therefore, in the presence of DMOG and Dex most BFU-E colonies were scored as “large BFU-Es.”
No GEMM colonies were formed (Table S2).
as §4

Test [6] relates to human peripheral blood erythroid progenitors. Nature of the test: Erythroblast formation from human mobilized peripheral blood CD34+ cells. In kind it is cell-based. The note with it: 100 μM DMOG with 1 nM Dex, human CD34+ derived progenitors. As to the method: FIG. 6. […] Human mobilized CD34+ cells were first thawed and cultured in serum free medium supplemented with StemSpan® CC100 cytokine mix containing rhSCF, rhFlt-3L, rhIL-3 and rhIL-6 for 5 days. […] Total cell number was counted every other day until cell numbers dropped at day 5+19. More than 95% of cells at the end of the culture have erythroblast morphology (data not shown). […] Error bars show one standard deviation.
An experiment was performed on human hematopoietic progenitor cells from mobilized peripheral blood CD34+ cells that were first cultured 5 days in serum-free medium containing rhSCF, rhFlt-3L, rhIL-3 and rhIL-6. […] Similarly to the murine cultures >95% of cells at the end of the culture are erythroblasts (data not shown).

For test [7], the target named is FIH (Homo sapiens, UniProt Q9NWT6). The note with it: cited from earlier work.
Sequence of FIH (Q9NWT6 whole entry): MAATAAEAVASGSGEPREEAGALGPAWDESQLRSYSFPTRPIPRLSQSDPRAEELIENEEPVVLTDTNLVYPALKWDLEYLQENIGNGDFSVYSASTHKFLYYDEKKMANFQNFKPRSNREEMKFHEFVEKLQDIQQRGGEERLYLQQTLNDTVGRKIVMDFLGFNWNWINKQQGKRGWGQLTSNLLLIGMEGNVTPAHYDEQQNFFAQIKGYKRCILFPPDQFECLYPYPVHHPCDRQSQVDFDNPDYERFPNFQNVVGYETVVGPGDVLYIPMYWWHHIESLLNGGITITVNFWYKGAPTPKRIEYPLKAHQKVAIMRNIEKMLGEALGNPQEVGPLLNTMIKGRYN
The test system of test [8] is HIF prolyl hydroxylase. The note with it: cited from earlier work.
[9] abbreviates: 333 μM DMOG and/or 100 nM Dex versus no additions.
The mark [10] stands for this setting: Day 3 of culture, 100 nM Dex or 333 μM DMOG alone.

For the molecule `COC(=O)CNC(=O)C(=O)OC` [DMOG, dimethyloxalylglycine], the “Relative increase in total erythroblast output per BFU-E” value in test [1] (setting [9]) amounted to 2.5 fold. For the same molecule, the “Enhancement of BFU-E proliferation by DMOG” value in test [1] (333 μM DMOG with 10 nM Dex) was 10 fold. For the same molecule, the “Increase by DMOG of BFU-E proliferation in the presence of Dex” value in test [1] (333 μM DMOG with 100 nM Dex versus Dex alone) came out at 7.3 fold. Also, the “Increase of total number of cells after the first three days” value in test [1] (CD24 and CD71 10% low BFU-E cells, 100 nM Dex and/or 333 μM DMOG) was “remained constant”. The “Total cell expansion from 1000 "BFU-E" cells, liquid culture” value is 4,200 in test [1] (CD24 and CD71 10% low BFU-E cells, SFELE, 100 nM Dex and/or 333 μM DMOG, day 1); 26,000 in test [1] (CD24 and CD71 10% low BFU-E cells, SFELE, 100 nM Dex and/or 333 μM DMOG, day 2); 130,000 in test [1] (CD24 and CD71 10% low BFU-E cells, SFELE, 100 nM Dex and/or 333 μM DMOG, day 3); 430,000 in test [1] (CD24 and CD71 10% low BFU-E cells, SFELE, 100 nM Dex and/or 333 μM DMOG, day 4); 820,000 in test [1] (CD24 and CD71 10% low BFU-E cells, SFELE, 100 nM Dex and/or 333 μM DMOG, day 5); 890,000 in test [1] (CD24 and CD71 10% low BFU-E cells, SFELE, 100 nM Dex and/or 333 μM DMOG, day 6). For the same molecule, the “Total cell expansion from 1000 "BFU-E" cells, liquid culture” value is recorded as 1,200,000 in test [1] (CD24 and CD71 10% low BFU-E cells, SFELE, 100 nM Dex and/or 333 μM DMOG, day 7); 1,200,000 in test [1] (CD24 and CD71 10% low BFU-E cells, SFELE, 100 nM Dex and/or 333 μM DMOG, day 8). Further, the “Increase of proliferation of sorted BFU-E cells” value in test [1] (CD71 and CD24a 10% low cells, SFELE, 100 nM Dex and/or 333 μM DMOG, versus no additions) is 2 fold. The “Effect on proliferation of bone marrow cells” value in test [2] (333 μM DMOG alone, 1 nM and 100 nM Dex) is given as “little if any effect”. Also, the “Enhancement of proliferation by DMOG above the effect of Dex” value is reported as 2.1 fold in test [2] (1 nM Dex) and 2.4 fold in test [2] (10 nM Dex (so in the source)). In addition, the “Increase of proliferation of sorted CFU-E cells” value in test [3] is listed as “do not significantly increase proliferation”. Besides, the “Relative increase in CFU-E output per BFU-E” value in test [4] (setting [9]) is listed as 2.1 fold. In addition, the “Total colony numbers from 1,000 "BFU-E" cells: CFU-E 1 cluster” value is 30 (±11) in test [4] (day 0 (before culture)); 637 (±227) in test [4] (day 1); 6,991 (±1,226) in test [4] (day 2); 23,685 (±5,919) in test [4] (day 3); 27,530 (±13,756) in test [4] (day 4); 26,730 (±9,557) in test [4] (day 5). Further, the “Total colony numbers from 1,000 "BFU-E" cells: CFU-E 1 cluster” value in test [4] (day 6) is 9,598 (±8,627). For the same molecule, the “Total colony numbers from 1,000 "BFU-E" cells: large BFU-E >20 clusters” value is reported as 423 (±31) in test [4] (day 0 (before culture)); 428 (±72) in test [4] (day 1); 217 (±33) in test [4] (day 2); 156 (±69) in test [4] (day 3); 0 in test [4] (day 5). The “Total colony numbers from 1,000 "BFU-E" cells: small BFU-E 5-20 clusters” value is reported as 262 (±64) in test [4] (day 0 (before culture)); 1,284 (±683) in test [4] (day 1); 3,232 (±1,416) in test [4] (day 2); 4,399 (±2,039) in test [4] (day 3); 1,000 (±365) in test [4] (day 5). In addition, in test [4] (setting [10]), the “BFU-Es per plated BFU-E” value was 4.8. For the same molecule, the “CFU-Es per plated BFU-E” value in test [4] (setting [10]) was 24. Further, in test [5], the CFU-E colonies is 21 (±11) colonies per 1000 plated cells. The CFU-G/M/Meg colonies in test [5] is given as 5 (±6) colonies per 1000 plated cells. For the same molecule, the GEMM colonies in test [5] is on record as 0 colonies per 1000 plated cells. Further, the “large BFU-E colonies” value in test [5] is listed as 164 (±23) colonies per 1000 plated cells. The “small BFU-E colonies” value in test [5] is 243 (±30) colonies per 1000 plated cells. Also, the “Erythroblasts formed relative to cultures with Dex alone” value in test [6] is ~10 times.
Turning to `O=C(O)C(=O)N[C@H](Cc1ccccc1)C(=O)O` [N-oxalyl-d-phenylalanine], in test [7], the “Inhibition of FIH” value is recorded as “inhibit the FIH”. Moreover, in test [8], the “Inhibition of a HIF prolyl hydroxylase” value was “not a HIF prolyl hydroxylase”.
